Test results published in ChEMBL document CHEMBL1795335, “Synthesis of novel 1,2,4-oxadiazoles and analogues as potential anticancer agents” (Eur J Med Chem, 2011).

Experiments:
Format in all cases: functional, cell-based
[1] = system: LNCaP; test: Cytotoxicity against human LNCAP cells after 48 hrs by MTT assay
[2] = system: DU-145; test: Cytotoxicity against human DU145 cells after 48 hrs by MTT assay; conditions: DU-145, 48 h
[3] = system: MDA-MB-231; test: Cytotoxicity against human MDA-MB-231 cells after 48 hrs by MTT assay; conditions: MDA-MB-231, 48 h
[4] = system: PC-3; test: Cytotoxicity against human PC3 cells after 48 hrs by MTT assay; conditions: PC-3, 48 h
[5] = system: MCF7; test: Cytotoxicity against human MCF7 cells after 48 hrs by MTT assay; conditions: MCF7, 48 h
[6] = system: MIA PaCa-2; test: Cytotoxicity against human MIAPaCa2 cells after 48 hrs by MTT assay; conditions: MIA PaCa-2, 48 h

SMILES	IC50 [1] [µM]	IC50 [2] [µM]	IC50 [3] [µM]	IC50 [4] [µM]	IC50 [5] [µM]	IC50 [6] [µM]
COc1ccc(-c2nc(-c3ccc(OC)c(OC4CCCC4)c3)no2)cc1	843	414	77.7	408	> 1000	420
COc1ccc(-c2nc(-c3ccc(OC)c(OC4CCCC4)c3)no2)cc1OC	816	422	236	171	> 1000	404
COc1ccc(-c2nc(-c3cc(OC)c(OC)c(OC)c3)no2)cc1	327	100	768	214	> 1000	43.5
COc1ccc(-c2nc(-c3cc(OC)c(OC)c(OC)c3)no2)cc1OC	> 1000	> 1000	475	> 1000	> 1000	> 1000
COc1cc(-c2noc(-c3cc(OC)c(OC)c(OC)c3)n2)cc(OC)c1OC	407	576	261	698	> 1000	> 1000
COc1ccc(-c2noc(C3CCNCC3)n2)cc1OC	38.8	108	122	315	27	147
CCOc1cc(-c2noc(C3CCNCC3)n2)ccc1OC	154	167	184	166	173	112
CCCCOc1cc(-c2noc(C3CCNCC3)n2)ccc1OC	32.5	17	23.8	35.8	15.7	18.5
COc1cc(-c2noc(C3CCNCC3)n2)ccc1OC1CCCC1	42.2	30	28.5	11.7	29	13
COc1cc(-c2noc(C3CCNCC3)n2)cc(OC)c1OC	120	112	123	176	324	80.1
CCOC(=O)N1CCC(c2nc(-c3ccc(OC)c(OC4CCCC4)c3)no2)CC1	58.7	29.3	36.8	80	27	24
COc1ccc(-c2noc(C3CCN(S(C)(=O)=O)CC3)n2)cc1OC1CCCC1	149	134	109	159	113	144
COc1ccc(-c2nnc(C3CCNCC3)o2)cc1OC1CCCC1	308	146	38.3	> 1000	129	331
COc1ccc(-c2nnc(C3CCNCC3)s2)cc1OC1CCCC1	19.2	19.6	9.2	12.9	17.6	10.2
COc1ccc(-c2noc(C3CCCCC3)n2)cc1OC1CCCC1	92.6	108	138	80.3	57.3	64.5
COc1ccc(-c2noc(C3CCCC3)n2)cc1OC1CCCC1	138	106	87.5	194	62.3	99.2
COc1ccc(-c2noc(C3CCN(C(=O)OC(C)(C)C)CC3)n2)cc1OC	85.6	158	129	108	52.2	32.5
CCOc1cc(-c2noc(C3CCN(C(=O)OC(C)(C)C)CC3)n2)ccc1OC	96.1	156	116	41	93.8	91.1
CCCCOc1cc(-c2noc(C3CCN(C(=O)OC(C)(C)C)CC3)n2)ccc1OC	91	102	88	130	91	105
COc1cc(-c2noc(C3CCN(C(=O)OC(C)(C)C)CC3)n2)ccc1OC1CCCC1	106	98.6	41	315	38	21.5
COc1cc(-c2noc(C3CCN(C(=O)OC(C)(C)C)CC3)n2)cc(OC)c1OC	48.2	48.4	13.6	56.9	43.6	106
COc1ccc(-c2noc(C3CCN(C(=O)OC(C)(C)C)CC3)n2)cc1OC1CCCC1	122	120	38.3	108	60.3	23.3
COc1ccc(-c2noc(C(Cl)(Cl)Cl)n2)cc1OC1CCCC1	17.8	9.3	16.1	15	47.4	14.5
